Laboratory results from US12257253B2, “Triamterene or nolatrexed for use in the treatment of phenylketonuria” (SOM INNOVATION BIOTECH, S.A., priority 2019, dated 2025).
Counter-ions that a name gives are not always drawn. Like-named read-outs stand apart in the source and are kept apart here.

What was measured:
wild-type PAH [1] = target: T1, wild-type PAH (Homo sapiens (Human), UniProt P00439); experiment: Thermal stability shift assay (DSF); format: binding; conditions: compound 30 μM (BH4 43 μM); for ΔTm1 WT PAH: shift of transition midpoint 1 vs NCC; for ΔTm2 WT PAH: shift of transition midpoint 2 vs NCC
Excerpt: (§1) 1. Thermal Stability Shift Assay
(§2) Thórólfsson et al. (Biochemistry, 2002, 41(24), 7573-7585) describe that the thermal denaturation of hPAH occurs in three stages: (i) unfolding of the four regulatory domains, which is responsible for the low-temperature calorimetric transition (ii) unfolding of two (out of the four) catalytic domains, which is responsible for the high-temperature transition; and (iii) irreversible protein denaturation. The most important domain for stabilization is the regulatory domain.
(§3) Thus, to test the compound effect on thermal stability of the target protein a thermal stability shift assay (also called differential scanning fluorimetry (DSF)) was performed [Niesen F. H. et al., Nat Protoc., 2007, 2(9), 2212-2221; Gersting S. W. et al., Human Molecular Genetics, 2010, 19(10), 2039-2049; and Gersting S. W. et al., J. Biol Chem. 2010, 285(40), 30686-30697]. DSF monitors thermal unfolding of proteins in the presence of a fluorescent dye (SYPRO Orange; λexc=465 nm, λem=610 nm) and was performed using a real-time PCR instrument (Applied BioSystems 7000HT Fast Real-Time PCR System). Compounds that increase the midpoints of thermal denaturation (Tm) are considered to bind and stabilize the protein.
(§4) In brief, purified wild-type or Arg261Gln (which is the most frequent mutation responsive to BH4) PAH proteins (diluted in 20 mM NaHEPES, pH 7.0 and 200 mM NaCl, 2 mM DTT to 2 mg/ml) were used at a final concentration of 0.2 mg/ml protein per sample. The compounds were tested at a final concentration of 30 μM. A no compound control (NCC) was used according to the compound solvent at a final concentration of 2% (H2O, DMSO, ethanol, methanol). As a positive control we used the natural cofactor 6R-L-erythro-5,6,7,8-tetrahydrobiopterin (BH4, CAS 69056-38-8) stabilized in 100 mM dithiothreitol (DTT), in a final concentration of 43 μM. To exclude unspecific effects of the compound to the dye, a no protein control (NPC) was added (buffer, compound, dye). The measurement was performed in duplicates and samples were denatured by scanning a temperature range of 20 to 75° C. at a scan rate of 0.5° C./min.
(§5) The data was normalized and the respective Tm values were calculated by bi-phasic equation to determine temperatures at which half denaturation occurred (Software GraphPadPrism). To identify compound specific effects on the thermal stability of the target protein, the reference Tm (NCC) was used to calculate the temperature shift between compound treated and not treated protein (Tm−TmNCC), from duplicates, to provide transition midpoints shifts (ΔTm1 and ΔTm2). Tm1 and Tm2 are the two different transition mid point of the unfolding process of the protein as the tetrameric protein PAH unfolds in two steps due to its domains. A shift in Tm1 of 2° C. reflects a relevant increase in thermal stability on the regulatory domain and, thus, is considered a positive result.

Arg261Gln (R261Q) PAH [2] = target: T2, Arg261Gln (R261Q) PAH (Homo sapiens (Human), UniProt P00439, R261Q); experiment: Thermal stability shift assay (DSF); format: binding; conditions: compound 30 μM (BH4 43 μM); for ΔTm1 R261Q PAH: shift of transition midpoint 1 vs NCC; for ΔTm2 R261Q PAH: shift of transition midpoint 2 vs NCC
Excerpt: as §1, §2, §3, §4, §5

wild-type PAH [3] = target: T1, wild-type PAH; experiment: Isothermal titration calorimetry; format: binding; conditions: ITC; for Kd / N (stoichiometry) / ΔG / ΔH / −TΔS: 25° C., WT PAH
Excerpt: 4. Isothermal Titration Calorimetry
Isothermal titration calorimetry (ITC) is a quantitative physical technique used to determine binding affinities of small molecules to proteins or other larger molecules [Freyer M. W. and Lewis E. A., Methods in Cell Biology, 2008, vol. 4, Chapter 4, pages 79-113]. The measurement detects changes of heat generated or absorbed when molecules interact, generate binding kinetics and thermodynamic profile of the molecular interaction. The following parameters are determined: KD (equilibrium dissociation constant), N (stoichiometry of the interaction (mol ligand/mol complex)), ΔH (enthalpy change), ΔG (Gibbs energy), T (temperature) and ΔS (entropy change).
ITC experiments were performed at 25° C. using a MicroCal PEAQ-ITC microcalorimeter (Malvern). PAH proteins were prepared in a HEPES buffer (HEPES 20 mM Hepes, 0.2M NaCl, 1 mM DTT, pH 7.0) containing 5% DMSO, in order to match the final DMSO concentration of the compounds dilutions. The protein concentration used (30 μM) was determined using ultraviolet (UV) absorbance at 280 nm. The compounds ([…]) were prepared using the exact same buffer. Twelve injections of 3 μL of compound/ligand were titrated into the sample cell (containing the protein) over 31 min with a stirring speed of 750 rpm. Data was baseline adjusted by subtracting the background obtained from equivalent injections of compound into the buffer solution. The titration curves were analyzed using MicroCal PEAQ-ITC analytics software (version 1.1.0.1262, Malvern Instruments Ltd.) using a model that assumes a set of identical binding sites where the total heat of the solution is calculated as:
[formula] where n is the number of binding sites, Mt is the total protein concentration in the cell, ΔH is the molar heat of ligand binding, Xt is the total concentration of ligand, and K the binding constant (K=1/KD). The heat released per injection (i), ΔQ(i), is calculated following the equation below, which compensates for the volume that is added in each injection (ΔVi). V0 is the initial volume in the cell.
The parameters, n, K, and ΔH are determined using non-linear square fitting using the Levenberg-Marquardt algorithm.

Arg261Gln (R261Q) PAH [4] = target: T2, Arg261Gln (R261Q) PAH; experiment: Phenylalanine hydroxylase residual protein amount (dot blot, COS-7 lysates); format: cell-based; conditions: COS-7 cells, compound 10 μM (sepiapterin 5 μM), read-out: PAH protein level (immune blot signal) R261Q PAH Mean
Description: (§6) 3. Phenylalanine Hydroxylase Residual Protein Amount
(§7) The analysis of the residual PAH protein amount was based on the method described in Gersting S. W. et al., Human Molecular Genetics, 2010, 19(10), 2039-2049 with modifications.
(§8) Detection of the residual PAH protein amount was performed as a dot blot using the lysates obtained from the cell culture where transiently transfected COS-7 cells (with wild-type PAH or PAH variant) were exposed for 48 h to compounds. The experiment was carried out from the same samples as used for measuring enzyme activities.
(§9) 2 μl of the lysate were dropped onto the nitrocellulose membrane. The membrane was allowed to air dry at room temperature for 30 min followed by 40 min blocking in 5% milk in TBS-Tween (room temperature). The membrane was incubated with the mouse monoclonal primary antibody specific for PAH (Millipore, Cat. No. MAB5278, 1:1000 dilution in 5% milk in TBS-Tween) for overnight at 4° C. Next, the membrane was washed (3×10 min in TBS-Tween) and incubated with the secondary HRP-conjugated antibody (anti-mouse antibody; Santa Cruz Biotechnology, Inc., Cat. No. sc-2005; 1:1000 dilution in 5% milk in TBS-Tween) followed by thorough washing in TBS-Tween (3×10 min) and distilled water (1×10 min). Blots were visualized with Pierce™ ECL substrate (ThermoFisher Scientific, Cat No. 32106) and chemiluminescence was monitored with a DIANA III Imaging system or ChemiDoc™ MP Imaging System (BioRad). To analyze the compound effect on the PAH protein amount densitometry analysis was performed using ImageJ Software.
(§10) The effect of compound on PAH protein amount was calculated from triplicates. As for determination of the enzyme activity the background of the not transfected cells (NT) was subtracted from the transfected cells (NCC or compound treated). In the next step delta of the NCC versus compound treated cells was calculated. Residual protein amount greater than 100% represents an increase in the stability of the enzyme with respect to NCC.

wild-type PAH [5] = target: T1, wild-type PAH; experiment: as above; format: cell-based; conditions: COS-7 cells, compound 10 μM (sepiapterin 5 μM), read-out: PAH protein level (immune blot signal) WT PAH Mean
Description: as §6, §7, §8, §9, §10

T1 sequence (P00439 whole entry): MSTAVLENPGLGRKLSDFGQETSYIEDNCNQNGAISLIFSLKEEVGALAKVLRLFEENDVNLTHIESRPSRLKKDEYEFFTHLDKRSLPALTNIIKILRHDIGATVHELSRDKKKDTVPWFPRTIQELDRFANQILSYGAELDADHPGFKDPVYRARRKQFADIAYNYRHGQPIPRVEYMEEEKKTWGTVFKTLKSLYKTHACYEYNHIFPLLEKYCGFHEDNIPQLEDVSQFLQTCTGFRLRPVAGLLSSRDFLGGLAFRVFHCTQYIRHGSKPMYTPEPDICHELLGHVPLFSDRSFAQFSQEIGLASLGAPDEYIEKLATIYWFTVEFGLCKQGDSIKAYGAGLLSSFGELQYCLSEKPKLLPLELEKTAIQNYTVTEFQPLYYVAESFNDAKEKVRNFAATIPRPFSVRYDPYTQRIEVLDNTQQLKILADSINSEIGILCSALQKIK
T2 sequence (P00439 whole entry R261Q): as the sequence (P00439 whole entry) above, with R261Q counted along it

Compound	ΔTm1 WT PAH (wild-type PAH [1]) [°C]	ΔTm1 R261Q PAH (Arg261Gln (R261Q) PAH [2]) [°C]	ΔTm2 R261Q PAH (Arg261Gln (R261Q) PAH [2]) [°C]	ΔTm2 WT PAH (wild-type PAH [1]) [°C]	PAH protein level (% of control) at 10 µM (Arg261Gln (R261Q) PAH [4]; 48 h) [%]	PAH protein level (% of control) at 10 µM (wild-type PAH [5]; 48 h) [%]	other results
C=CCn1c(=O)n([C@@H]2O[C@H](CO)C(O)C2O)c2nc(N)[nH]c(=O)c21 (stereo in doubt) [Loxoribine, 2-amino-9-[(2R,3R,4S,5R)-3,4-dihydroxy-5-(hydroxymethyl)oxolan-2-yl]-7-prop-2-enyl-3H-purine-6,8-dione]	3.57						
C[C@H](O)[C@H](O)[C@H]1CNc2[nH]c(N)nc(=O)c2N1 [BH4, 6R-L-erythro-5,6,7,8-tetrahydrobiopterin]	0.20	2.54	12.17	1.88			Kd (wild-type PAH [3]): 40.7 ± 14.1 µM; N (stoichiometry) (wild-type PAH [3]): 0.936 ± 0.3 sites; ΔG (wild-type PAH [3]): -6 kcal/mol; ΔH (wild-type PAH [3]): -17.9 ± 7.91 kcal/mol; −TΔS (wild-type PAH [3]): 11.9 kcal/mol
CCc1cccc2cc(C(O)CNC(C)(C)C)oc12 (centres unmarked) [Bufuralol HCl, 2-(tert-butylamino)-1-(7-ethyl-1-benzofuran-2-yl)ethan-1-ol]	1.62	2.24		−0.09			
CN1CCc2cc3c(cc2C1O)OCO3 (centres unmarked) [Hydrastinine HCl, 6-methyl-7,8-dihydro-5H-[1,3]dioxolo[4,5-g]isoquinolin-5-ol]	−0.49	2.46	0.04	6.10	141	164	Kd (wild-type PAH [3]): 2.99 ± 3.2 µM; N (stoichiometry) (wild-type PAH [3]): 1.310 ± 0.2 sites; ΔG (wild-type PAH [3]): -7.55 kcal/mol; ΔH (wild-type PAH [3]): 2.29 ± 0.55 kcal/mol; −TΔS (wild-type PAH [3]): -9.82 kcal/mol; Kd (in words) (wild-type PAH [3]; recombinant PAH): low micromolar range
Nc1cc(N2CCCCC2)nc(N)[n+]1[O-] [Minoxidil, 2,6-diamino-4-(piperidin-1-yl)pyrimidine 1-oxide]					96.1	127	
CCC[S+]([O-])c1ccc2[nH]c(NC(=O)OC)nc2c1 (centres unmarked) [Ricobendazole, methyl [5-(propane-1-sulfinyl)-1H-benzoimidazol-2-yl]-carbamate]	−0.48	2.19	3.39	2.57	104	154	
CCc1cccc2cc(C(O)CNC(C)(C)C)oc12 (centres unmarked) [S-Bufuralol HCl, 2-(tert-butylamino)-1-(7-ethyl-1-benzofuran-2-yl)ethan-1-ol]	1.05	3.73	0.92	0.24			
CC(C)[C@H](N)C(=O)OCCOCn1cnc2c(=O)[nH]c(N)nc21 [Valacyclovir HCl, 2-[(2-amino-6-oxo-3H-purin-9-yl)methoxy]ethyl (2S)-2-amino-3-methylbutanoate]					104	146	
CC(C)[C@H](N)C(=O)OCC(CO)OCn1cnc2c(=O)[nH]c(N)nc21 (stereo partly drawn) [Valganciclovir HCl, [2-[(2-amino-6-oxo-3H-purin-9-yl)methoxy]-3-hydroxypropyl] (2S)-2-amino-3-methylbutanoate]							PAH protein level (% of control) at 10 µM (Arg261Gln (R261Q) PAH [4]; COS-7, 48 h): 141%; PAH protein level (% of control) at 10 µM (wild-type PAH [5]; COS-7, 48 h): 138%
